Experiments:
human IR-A = assay: IR-A autophosphorylation (In-Cell Western); format: cell-based; conditions: for EC50: CHO cells overexpressing IR-A, 15 min at 37°C, In-Cell Western, means ± SEM, at least three times, read-out: IR-A auto-phosphorylation EC50
Text: CHO cells expressing either the IR-A or the IR-B isoform were used for IR autophosphorylation assays using In-Cell Western. For the analysis of IGF1R autophosphorylation the receptor was overexpressed in a mouse embryo fibroblast 3T3 Tet off cell line (BD Bioscience, Heidelberg, Germany) that was stably transfected with IGF1R tetracycline-regulatable expression plasmid resulting in the expression of ∼2.6×10^5 IGF1R per cell (as determined by FACS analysis, unpublished data). In order to determine the receptor tyrosine phosphorylation level, cells were seeded into 96-well plates and grown for 48 h. Cells were serum starved with serum-free medium αMEM (PAN Biotech GmbH, Aidenbach, Germany) for 3–4 h. […] After incubation the medium was discarded and the cells were fixed in 3.75% freshly prepared para-formaldehyde for 20 min. Cells were permeabilized with 0.1% Triton-X-100 in PBS for 20 min. Blocking was performed with Odyssey blocking buffer (LI-COR, Bad Homburg, Germany) overnight at 4°C. Anti-pTyr 4G10 (Millipore, Schwalbach, Germany) was incubated for 2 h at room temperature. After incubation of the primary antibody, cells were washed with PBS+0.1% Tween20. The secondary anti-mouse-IgG-800-CW antibody (Rockland, Gilbertsville, PA, USA) was incubated for 1 h. Results were normalized by the quantification of DNA with TO-PRO3 dye (Invitrogen, Karlsruhe, Germany). Data were obtained as relative units (RU) and are presented as fold over basal.
(§1) For each experiment, IC50 or EC50 values were obtained using the 4-parameter logistic model according to Ratkowsky and Reedy (1986). The adjustment was obtained by non-linear regression using the Levenberg-Marquardt algorithm in SAS v9.1.3 software via Biost@t-Speed V2.0-LTS internal application. If necessary, lower and upper asymptotes were set to 0 and 100, respectively.
The binding of a constant concentration of [^125I]insulin to plasma membranes from CHO cells overexpressing either IR-A or IR-B was measured in presence of increasing concentrations of unlabeled competing ligand after incubation at room temperature for 12 h. All data has been corrected for non-specific binding and are expressed as percentage of [^125I]insulin in absence of competing ligand. To analyze the insulin-stimulated activation and subsequent autophosphorylation of the insulin receptor CHO cells overexpressing the human IR-A (C) or IR-B (D) were stimulated for 15 min at 37°C with increasing concentrations of peptides, then the cells were fixed with 3.7% PFA and the amount of phosphotyrosines was analyzed via In-Cell Western. The data represent mean values ± SEM of at least 3 individual experiments measured in quadruplicate.
Insulin receptor autophosphorylation was studied using CHO cells overexpressing either IR-A or IR-B. For detection an immunocytochemical microplate assay (In-Cell Western) based on two-colour fluorescence was applied.

Saos-2 cells = assay: Mitogenic potency: thymidine incorporation in Saos-2 cells; format: cell-based, human; conditions: for EC50: [2-^14C]-thymidine incorporation, 19 h stimulation plus 6 h thymidine, serum-free, 37°C, octuplicate samples, means ± SEM, at least three times; for mitogenicity in words: relative to glargine and human insulin
Method: The human osteosarcoma cell line Saos-2 was obtained in frozen aliquots from the European Collection of Cell Cultures (ECACC, Salesbury, UK). Cells were grown in McCoy's 5a medium (Gibco, Grand Island, NY, USA) supplemented with 10% fetal calf serum (PAN Biotech GmbH, Aidenbach, Germany) and 2 mM (final) L-glutamine (Sigma Aldrich, Irvine, UK). Subconfluent cultures (9-15×10^6 cells per 225 cm^2 flask) were used to determine the mitogenic activity of the test compounds.
For measuring thymidine incorporation 40,000 cells were seeded per well of a 96-well Cytostar-T scintillation microplate (GE Healthcare, Amersham, UK) and the plates were incubated overnight at 37°C in a humidified atmosphere containing 5% CO2. The serum-containing medium was removed and replaced by 200 µL serum-free McCoy's 5a medium supplemented with 0.5% (w/v) BSA (Gibco, Grand Island, NY, USA), 2 mM L-glutamine and antibiotics (penicillin 100 units, streptomycin 100 units, amphotericin B 0.25 µg/mL final, Gibco, Grand Island, NY, USA). The plates were incubated for 4 hours at 37°C in a humidified atmosphere containing 5% CO2. 150 µL of the medium were removed and substituted by 150 µL of serum-free medium containing the different insulins or IGF-1 (Cell Sciences, Canton, MA, USA) at the indicated concentrations and the plates were incubated at 37°C in a humidified atmosphere containing 5% CO2. After 19 hours 10 µL of [2-^14C]-thymidine solution ([…], 3.7 MBq/mL) diluted in serum-free McCoy's 5a medium were added per well to yield a final concentration of 500 nCi/mL and the plates were incubated for 6 hours at 37°C in a humidified atmosphere containing 5% CO2. ^14C-thymidine incorporation was measured in a Wallac 1450 Micro Beta Trilux Scintillation counter. Dose-response curves were obtained by testing ten different concentrations of the ligands with every concentration tested by octuplicate samples.
as §1
(§2) Figure 4 Activity of insulin analogs on the human IGF1R and mitogenic potential in Saos-2 cells. Analysis of binding to the human IGF1R using [^125I]IGF-1 as radioactive ligand (A) and analysis of the insulin-stimulated autophosphorylation of the human IGF1R overexpressed in MEF cells (B) were done as described in figure 2 and Materials and Methods. Data are given as means ± SEM. […] Confluent cells were starved for 4 h and then incubated for 19 h with increasing concentrations of IGF-1, insulin or analog in serum free medium. [^14C]thymidine was added for further 6 h and the radioactivity measured in a Wallac Micro Scintillation counter. Data are given as means ± SEM from octuplicate sample.

human IGF1R = assay: Competitive binding, IGF1R; conditions: for IC50: [^125I]IGF-1 as radioactive ligand, means ± SEM, at least three times, read-out: IGF1R affinity IC50
Method: Binding experiments were conducted in 96-well microplates. Per well 2 µg of membranes were incubated with 0.25 mg wheat germ agglutinin polyvinyltoluene polyethylenimine SPA beads, 100 pmol/L A14[^125I]-insulin and various concentrations of unlabeled insulins in a binding buffer containing 0.05 mol/L Tris-HCl pH 7.8, 0.15 mol/L NaCl, 0.1% BSA, Complete Protease Inhibitor for 12 hours at room temperature (23°C). The radioactivity was measured at equilibrium in a microplate scintillation counter (Wallac Microbeta, Freiburg, Germany).
as §1, §2

insulin receptor = conditions: cited from earlier work
Text: Accordingly, a good correlation between the potency in insulin receptor binding, induction of autophosphorylation and stimulation of lipid synthesis has been observed for insulin analogs. […] Taken together ...

[1] = in vivo; cited from earlier work
[2] = relative to human insulin, ref [12]

Row | EC50 (human IR-A) [nM] | EC50 (Saos-2 cells) [nM] | IC50 (human IGF1R) [nM] | Substance | affinity towards IR and IGF1R (insulin receptor; IR and IGF1R, relative to human insulin, ref [12]) | occupancy time for the IR (insulin receptor; ref [12]) | occupancy of receptor (insulin receptor; ref [50]) | decrease in IR-A autophosphorylation activity (human IR-A; relative to human insulin) | dissociation rate (insulin receptor; relative to human insulin, ref [12], [51]) | insulin receptor binding relative to human insulin (insulin receptor; [2]) [%] | mitogenicity in words (Saos-2 cells) | plasma levels of metabolites [1] | IGF1R affinity in words (human IGF1R)
1 | 11 ± 1.3 | 12.2 ± 0.27 | – | Human insulin: human insulin produced by recombinant DNA techniques or enzymatic semisynthesis | – | – | – | – | – | – | – | – | –
2 | 449 ± 61.7 | 0.22 ± 0.05 | 0.89 ± 0.19 | IGF-1: IGF-1 obtained from R&D Systems and Cell Sciences | – | – | – | – | – | – | – | – | –
3 | 5.1 ± 0.7 | 1.52 ± 0.15 | 104 ± 12.8 | [Asp^B10]insulin | higher affinity towards both IR and IGF1R | prolonged occupancy time | prolonged occupancy | – | – | – | – | – | –
4 | 23.1 ± 2.7 | 3.75 ± 0.31 | 80 ± 10.2 | [Gly^A21,Arg^B31]insulin [Glargine IM] | – | – | – | – | – | – | reduced relative to insulin glargine | minor species only | –
5 | 19.2 ± 1.6 | 17.9 ± 6.5 | 427 ± 20.6 | [Gly^A21,des-Thr^B30]insulin [Glargine M2] | – | – | – | – | – | – | significantly less mitogenic than glargine and comparable to normal insulin | significant plasma levels | significantly reduced

Row | Substance | EC50 (human IR-A) [nM] | EC50 (Saos-2 cells) [nM] | IC50 (human IGF1R) [nM] | affinity towards IR and IGF1R (insulin receptor; IR and IGF1R, relative to human insulin, ref [12]) | occupancy time for the IR (insulin receptor; ref [12]) | occupancy of receptor (insulin receptor; ref [50]) | decrease in IR-A autophosphorylation activity (human IR-A; relative to human insulin) | dissociation rate (insulin receptor; relative to human insulin, ref [12], [51]) | insulin receptor binding relative to human insulin (insulin receptor; [2]) [%] | mitogenicity in words (Saos-2 cells) | plasma levels of metabolites [1] | IGF1R affinity in words (human IGF1R)
6 | [Gly^A21,Arg^B31,Arg^B32]insulin [Glargine] | 18.4 ± 2.4 | 1.61 ± 0.26 | 63.2 ± 19.9 | – | – | – | 30–50% | dissociation rate similar to that of human insulin | 86 | – | – | –
7 | [Gly^A21]insulin [Glargine M1] | 18.6 ± 2.5 | 16.2 ± 2.35 | 649 ± 31.9 | – | – | – | – | – | 78 | significantly less mitogenic than glargine and comparable to normal insulin | significant plasma levels | significantly reduced

— paper PMC2832019, “In Vitro Metabolic and Mitogenic Signaling of Insulin Glargine and Its Metabolites” (PLoS ONE, 2010)
